From ChEMBL document CHEMBL1128584, “Prediction of drug binding affinities by comparative binding energy analysis” (J Med Chem, 1995) come the findings set out here.

What is called inhibition is the percentage by which the read-out fell short of the control.

The experiment concerns the target T1, Phospholipase A2, membrane associated (Homo sapiens) (UniProt P14555).
T1 sequence (whole entry): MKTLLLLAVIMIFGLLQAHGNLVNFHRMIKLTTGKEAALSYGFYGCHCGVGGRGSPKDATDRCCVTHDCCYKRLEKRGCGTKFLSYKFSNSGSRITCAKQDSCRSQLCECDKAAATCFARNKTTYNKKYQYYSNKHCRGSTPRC
As to the kind of experiment: Inhibitory activity against human synovial fluid phospholipase A2 (HSF-PLA2). The following applies: concentration not given here. Details: concentration or dose not given beside the values.
`CCCCCCCCCCS(=O)(=O)NC(CCCCCC)COCC(F)(F)F` (stereo not given) returned an inhibition of 0%. For `CCCCCCCCCCC(=O)NC(CCCCCC)COP(=O)(O)OCCN` (stereo not given) the value was 28%; for `CCCCCCCCOCC(COP(=O)(O)OCC[N+](C)(C)C)OP(=O)(O)CCCCCCC` (stereo not given), 9%. `CCCCCCCCCCS(=O)(=O)NC(CCCCCC)COP(=O)(O)OCCCC` (stereo not given) gave an inhibition of 0%. As for `CCCCCCCCCCS(=O)(=O)N[C@H](CCCCCC)COP(=O)(O)OCCO`, the figure is 40%. As for `CCCCCCCCCCCC(=O)NC(CCCCCC)COP(=O)(O)OCCO` (stereo not given), the figure is 61%; as for `CCCCCCCCOCC(COP(=O)(O)OCCN)OP(=O)(O)CCCCCCC` (stereo not given), 33%. As for `CCCCCCCCCCS(=O)(=O)NC(CCCCCC)COP(=O)(O)OCCO` (stereo in doubt; form 2), the figure is 44%; as for `CCCCCCCCCCS(=O)(=O)CC(CCCCCC)COP(=O)(O)OCCOCc1ccccc1` (stereo in doubt; form 2), 79%. As to `CCCCCCCCCCS(=O)(=O)NC(CCCCCC)COP(=O)(O)OCCO` (stereo in doubt; form 1), the inhibition was determined as 49%. For `CCCCCCCCCCCC(=O)NC(CCCCCC)COP(=O)(O)OCCCC` (stereo not given) the value was 80%. Take `CCCCCCCCCCCC(=O)NC(CCCCCC)COP(=O)(CCCC)OC` (stereo not given): the inhibition turned out to be 24%.

In turn, `CCCCCCCCCCS(=O)(=O)NC(CCCCCC)COP(=O)(O)CCCC` (stereo not given) registered an inhibition of 30%. For the compound `CCCCCCCCCCS(=O)(=O)N[C@H](CCCCCC)COP(=O)(O)OCCOCc1ccccc1` (stereo in doubt; form 3), the inhibition is 74%. As for `CCCCCCCCCCCC(=O)NC(CCCCCC)COP(=O)(O)OCC(N)C(=O)O` (stereo not given), the inhibition was found to be 31%. Compound `CCCCCCCCCCS(=O)(=O)CC(CCCCCC)COP(=O)(O)OCCOCc1ccccc1` (stereo in doubt; form 1) displayed an inhibition of 29%. As for `CCCCCCCCCCS(=O)(=O)N[C@H](CCCCCC)COP(=O)(O)OCCOCc1ccccc1` (stereo in doubt; form 2), the figure is 46%. Compound `CCCCCCCCCCCC(=O)NC(CCCCCC)COP(=O)(O)OCCOCc1ccccc1` (stereo not given) came in with an inhibition of 6%. As to `CCCCCCCCCCS(=O)(=O)NC(CCCCCC)COP(=O)(O)OCCOCc1ccccc1` (stereo in doubt; form 2), the inhibition was determined as 36%. Regarding `CCCCCCCCCCS(=O)(=O)N[C@H](CCCCCC)COP(=O)(O)OCCOCc1ccccc1` (stereo in doubt; form 1), the inhibition is 45%. For `CCCCCCCCCCCC(=O)NC(CCCCCC)COP(=O)(O)CCCC` (stereo not given) the value was 45%. As for `CCCCCCCCCCS(=O)(=O)NC(CCCCCC)COP(=O)(O)OCCOCc1ccccc1` (stereo in doubt; form 1), the figure is 12%. As for `CCCCCCCCCCS(=O)(=O)NC(CCCCCC)COP(=O)(O)OCCN` (stereo not given), the figure is 4%. On to `CCCCCCCCCCS(=O)(=O)NC(CCCCCC)COS(=O)(=O)CCCOCc1ccccc1` (stereo not given), for which the inhibition is 28%.

On to `CCCCCCCCCCS(=O)(=O)NC(CCc1ccccc1)COP(=O)(O)OCCOCc1ccccc1` (stereo not given), for which the inhibition stood at 24%.
